Measurements as given in PubChem BioAssay (NCI).
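Dose response: 5 concentrations. Exposure: 48 h. Format: 96-well plates. Endpoint: linear interpolation; highest concentration if not reached. At the TGI there is no net growth.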

Legend:
Test in all cases: NCI anticancer screen, dose series, 48 h
RXF 393 renal = tested on: RXF 393 renal
ACHN renal = tested on: ACHN renal
SK-MEL-2 melanoma = tested on: SK-MEL-2 melanoma
OVCAR-5 ovarian = tested on: OVCAR-5 ovarian
NCI-H460 lung = tested on: NCI-H460 lung
SNB-19 CNS = tested on: SNB-19 CNS
HCC-2998 colon = tested on: HCC-2998 colon
CCRF-CEM leukemia = tested on: CCRF-CEM leukemia
SW-620 colon = tested on: SW-620 colon
HT29 colon = tested on: HT29 colon
K-562 leukemia = tested on: K-562 leukemia
MDA-MB-435 = tested on: MDA-MB-435
MDA-N = tested on: MDA-N
U251 CNS = tested on: U251 CNS
786-0 renal = tested on: 786-0 renal
IGROV1 ovarian = tested on: IGROV1 ovarian
SF-539 CNS = tested on: SF-539 CNS
SNB-75 CNS = tested on: SNB-75 CNS
A498 renal = tested on: A498 renal
SK-OV-3 ovarian = tested on: SK-OV-3 ovarian

Row | Structure (SMILES) | TGI (RXF 393 renal) [µM] | TGI (ACHN renal) [µM] | TGI (SK-MEL-2 melanoma) [µM] | TGI (OVCAR-5 ovarian) [µM] | TGI (NCI-H460 lung) [µM] | TGI (SNB-19 CNS) [µM] | TGI (HCC-2998 colon) [µM] | TGI (CCRF-CEM leukemia) [µM] | TGI (SW-620 colon) [µM] | TGI (HT29 colon) [µM] | TGI (K-562 leukemia) [µM] | TGI (MDA-MB-435) [µM] | TGI (MDA-N) [µM] | TGI (U251 CNS) [µM] | TGI (786-0 renal) [µM] | TGI (IGROV1 ovarian) [µM] | TGI (SF-539 CNS) [µM] | TGI (SNB-75 CNS) [µM] | TGI (A498 renal) [µM] | TGI (SK-OV-3 ovarian) [µM]
1 | NC(=O)N/N=C1\CCCCc2ccccc21 | > 10 | > 10 | > 10 | > 10 | > 10 | > 10 | > 10 | > 10 | > 10 | > 10 | > 10 | > 10 | > 10 | > 10 | > 10 |  |  |  |  | 
2 | CCOC(=O)C(=[N+]=[N-])C(=O)C1(C(=O)OCC)CCN(C(=O)c2ccccc2)C1=O (stereo not drawn) | > 100 | > 100 | > 100 | > 100 | > 100 | > 100 |  | > 100 |  | > 100 |  |  | > 100 |  | > 100 | > 100 | > 100 | > 100 | > 100 | > 100
3 | COc1ccc(/C=C2\NC(=S)N(CN3CCCCC3)C2=O)cc1 |  | > 100 | > 100 | > 100 |  | > 100 |  | > 100 | > 100 | 41 | > 100 | > 100 | > 100 | > 100 | > 100 | > 100 |  | 79 | > 100 | > 100
4 | Cc1ccc(C2=Nc3cccc4cccc(c34)N2)cc1 | > 100 | > 100 | > 100 |  | > 100 | > 100 | > 100 | > 100 | > 100 | > 100 | > 100 | > 100 | > 100 | > 100 | > 100 | > 100 | > 100 | > 100 |  | > 100
5 | COc1cc(OC)c2c(c1)C(=O)C(CC(C)O)=CC2=O (stereo not drawn) | 25.3 | 30.2 | 36.2 | 32.3 | 40.4 | 31.6 | 43.7 | 33.5 | 31.7 | 36.8 | 78.8 |  |  | 31.8 | 29.9 | 34.2 | 32.5 | 41 | 31.7 | 31.9
6 | ONc1ncnc2nc[nH]c12 |  | > 100 | > 100 | > 100 | > 100 | > 100 | > 100 | > 100 | > 100 | > 100 | > 100 |  |  | > 100 | > 100 | > 100 | > 100 | > 100 |  | 
7 | Cc1c(/C=N/NC(=O)c2cc(Br)cc(Br)c2O)c(=O)n(-c2ccccc2)n1C |  | > 100 | > 100 | > 100 | > 100 | > 100 | > 100 | > 100 | > 100 | > 100 | > 100 |  |  | > 100 | > 100 |  | > 100 | > 100 | > 100 | > 100
